Results as given in patent US7091018B2, “Enzyme gene and its expression product” (Otsuka Pharmaceutical Co., Ltd., priority 2000, dated 2006).

How the values were obtained:
[1] = target: T1, GFAT1S (Homo sapiens, UniProt Q06210); assay: GFAT activity assay (spectrophotometric, GDH/APAD coupled): Km values and inhibition pattern of UDP-G1cNAc, GFAT1S; type: biochemical
T1 construct: made in house; host or cells: E. coli BL21-CodonPlus(DE3)RIL, pET23b vector; ultracentrifuged lysate supernatant, not purified
Procedure: (§1) GFAT activity was determined in accordance with Marshall et al. by means of spectrophotometry using a microplate (96 wells) (Journal of Biological Chemistry, vol. 266 No. 8, 4706–4712 (1991)) in the following manner. Glutamate produced by GFAT was allowed-to react with glutamate dehydrogenase (GDH), during which a reductive reaction of coenzyme APAD into APADH proceeded simultaneously. Changes in absorbance that accompany the reduction reaction of APAD to APADH are considered to represent GFAT activity.
(§2) Briefly, an appropriately diluted solution of a lyzate of GFAT1L- or GFAT1S-introduced E. coli (50 μl) was added to a substrate solution (200 μl) containing a sodium phosphate buffer (pH=7.5; 40 mM), potassium chloride (50 mM), EDTA (1.25 mM), APAD (0.3 mM), GDH (6 U/ml), glutamine (0–6 mM), and fructose-6-phosphate (F-6-P: 0–6 mM), and the mixture was allowed to react at 37° C. for 60 minutes. The absorbance change at 365 nm associated with the reaction was measured by use of a microplate reader.
(§3) In order to study the difference in terms of enzymatic behavior between GFAT1L and GFAT1S, Km values were determined using, as substrates, glutamine and F-6-P. Km values were calculated on the basis of :S/v−S plotting and v−v/S plotting, which were made with regard to the enzyme substrate concentration (S) and activity of the enzyme (reaction rate (v)). […]

[2] = target: T2, GFAT1L (Homo sapiens, UniProt Q06210); assay: GFAT activity assay (spectrophotometric, GDH/APAD coupled): Km values and inhibition pattern of UDP-G1cNAc, GFAT1L; type: biochemical
T2 construct: made in house; host or cells: E. coli BL21-CodonPlus(DE3)RIL, pET23b vector; ultracentrifuged lysate supernatant, not purified
Procedure: as §1, §2, §3

[3] = F-6-P as substrate, UDP-G1cNAc 30, 100 μM
[4] = glutamine as substrate, UDP-G1cNAc 10, 30, 100 μM

T1 sequence (Q06210 1-681 isoform Q06210-2): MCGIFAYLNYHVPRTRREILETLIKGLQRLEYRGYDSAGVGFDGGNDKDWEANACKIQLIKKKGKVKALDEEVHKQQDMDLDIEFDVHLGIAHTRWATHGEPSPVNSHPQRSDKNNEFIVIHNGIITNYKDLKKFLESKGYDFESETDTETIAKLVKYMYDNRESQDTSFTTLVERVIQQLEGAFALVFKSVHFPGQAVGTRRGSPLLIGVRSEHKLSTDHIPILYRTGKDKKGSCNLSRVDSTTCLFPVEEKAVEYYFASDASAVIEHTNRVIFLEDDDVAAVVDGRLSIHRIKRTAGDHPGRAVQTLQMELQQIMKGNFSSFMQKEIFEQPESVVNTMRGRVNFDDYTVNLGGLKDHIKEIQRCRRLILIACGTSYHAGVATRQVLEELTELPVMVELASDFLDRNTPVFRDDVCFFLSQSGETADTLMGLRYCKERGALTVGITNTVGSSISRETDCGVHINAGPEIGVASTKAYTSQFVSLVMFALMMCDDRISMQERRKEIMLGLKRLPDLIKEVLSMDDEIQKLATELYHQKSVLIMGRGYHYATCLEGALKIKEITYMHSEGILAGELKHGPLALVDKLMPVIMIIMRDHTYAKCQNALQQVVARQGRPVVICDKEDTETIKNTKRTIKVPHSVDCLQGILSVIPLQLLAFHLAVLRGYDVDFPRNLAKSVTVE
T2 sequence (Q06210 whole entry): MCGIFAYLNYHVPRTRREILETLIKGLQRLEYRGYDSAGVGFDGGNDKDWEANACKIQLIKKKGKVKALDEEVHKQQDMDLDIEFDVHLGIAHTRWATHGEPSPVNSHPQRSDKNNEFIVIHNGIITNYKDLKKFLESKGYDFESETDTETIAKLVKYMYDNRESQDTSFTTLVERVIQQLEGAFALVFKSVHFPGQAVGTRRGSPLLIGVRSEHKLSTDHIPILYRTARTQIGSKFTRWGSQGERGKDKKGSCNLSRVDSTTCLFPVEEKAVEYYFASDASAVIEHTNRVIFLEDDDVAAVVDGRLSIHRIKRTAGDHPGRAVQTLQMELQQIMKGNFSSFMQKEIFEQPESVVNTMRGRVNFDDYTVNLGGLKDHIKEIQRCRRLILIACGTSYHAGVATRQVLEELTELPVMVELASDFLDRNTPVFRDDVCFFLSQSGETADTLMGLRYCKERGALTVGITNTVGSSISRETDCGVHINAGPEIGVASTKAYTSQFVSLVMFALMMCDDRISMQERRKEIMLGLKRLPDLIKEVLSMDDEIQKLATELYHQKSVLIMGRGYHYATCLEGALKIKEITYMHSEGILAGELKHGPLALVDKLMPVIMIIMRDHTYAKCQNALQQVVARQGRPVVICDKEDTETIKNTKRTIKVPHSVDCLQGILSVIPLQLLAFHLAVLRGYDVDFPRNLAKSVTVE

Inhibition pattern of UDP-G1cNAc against GFAT activity, F-6-P [1, 3]: competitive inhibition | Inhibition pattern of UDP-G1cNAc against GFAT activity, Glutamine [1, 4]: un-competitive inhibition | Inhibition pattern of UDP-G1cNAc against GFAT activity, F-6-P [2, 3]: mixed inhibition | Inhibition pattern of UDP-G1cNAc against GFAT activity, Glutamine [2, 4]: mixed inhibition
SMILES: CC(=O)N[C@H]1[C@@H](OP(=O)(O)OP(=O)(O)OC[C@H]2O[C@@H](n3ccc(=O)[nH]c3=O)[C@H](O)[C@@H]2O)O[C@H](CO)[C@@H](O)[C@@H]1O [UDP-G1cNAc, UDP-N-acetylglucosamine]
